The assay has as its target T1, hEP2/Gqs5 (Homo sapiens, UniProt P43116).
T1 construct: expressed in transfected cells; host or cells: HEK-293(EBNA)
The experiment in a line: FLIPR calcium signal, hEP2. The class given is cell-based. Here is the method:
HEK-293(EBNA) cells, stably expressing one type or subtype of recombinant human prostaglandin receptors (prostaglandin receptors expressed: hDP/Gqs5; hEP1; hEP2/Gqs5; hEP3A/Gqi5; hEP4/Gqs5; hFP; hIP; hTP), were cultured in 100 mm culture dishes in high-glucose DMEM medium containing 10% fetal bovine serum, 2 mM 1-glutamine, 250 μg/ml geneticin (G418) and 200 μg/ml hygromycin B as selection markers, and 100 units/ml penicillin G, 100 μg/ml streptomycin and 0.25 μg/ml amphotericin B. • (b) Calcium Signal Studies on the FLIPR™
Cells were seeded at a density of 5×10^4 cells per well in Biocoat® Poly-D-lysine-coated black-wall, clear-bottom 96-well plates (Becton-Dickinson) and allowed to attach overnight in an incubator at 37° C. Cells were then washed two times with HBSS-HEPES buffer (Hanks Balanced Salt Solution without bicarbonate and phenol red, 20 mM HEPES, pH 7.4) using a Denley Cellwash plate washer (Labsystems). After 45 minutes of dye-loading in the dark, using the calcium-sensitive dye Fluo-4 AM at a final concentration of 2 μM, plates were washed four times with HBSS-HEPES buffer to remove excess dye leaving 100 μl in each well. Plates were re-equilibrated to 37° C. for a few minutes.
Cells were excited with an Argon laser at 488 nm, and emission was measured through a 510-570 nm bandwidth emission filter (FLIPR™, Molecular Devices, Sunnyvale, Calif.). Drug solution was added in a 50 μl volume to each well to give the desired final concentration. The peak increase in fluorescence intensity was recorded for each well. On each plate, four wells each served as negative (HBSS-HEPES buffer) and positive controls (standard agonists: BW245C (hDP); PGE2 (hEP1; hEP2/Gqs5; hEP3A/Gqi5; hEP4/Gqs5); PGF2α (hFP); carbacyclin (hIP); U-46619 (hTP), depending on receptor). The peak fluorescence change in each drug-containing well was then expressed relative to the controls.
Compounds were tested in a high-throughput (HTS) or concentration-response (CoRe) format. In the HTS format, forty-four compounds per plate were examined in duplicates at a concentration of 10^−5 M. To generate concentration-response curves, four compounds per plate were tested in duplicates in a concentration range between 10^−5 and 10^−11 M. The duplicate values were averaged. In either, HTS or CoRe format each compound was tested on at least 3 separate plates using cells from different passages to give an n≧3.

[1] abbreviates: FLIPR Ca2+ signal, HEK-293(EBNA), read-out: FUNCTIONAL EC50 HEP2.
Setting [2] is: read-out: FUNCTIONAL Ca2+ EC50 HEP2.

One may read the EC50 as the concentration giving half of the maximal effect.

Read-outs that look alike come from different tables or passages of the source.

T1 sequence (P43116 whole entry): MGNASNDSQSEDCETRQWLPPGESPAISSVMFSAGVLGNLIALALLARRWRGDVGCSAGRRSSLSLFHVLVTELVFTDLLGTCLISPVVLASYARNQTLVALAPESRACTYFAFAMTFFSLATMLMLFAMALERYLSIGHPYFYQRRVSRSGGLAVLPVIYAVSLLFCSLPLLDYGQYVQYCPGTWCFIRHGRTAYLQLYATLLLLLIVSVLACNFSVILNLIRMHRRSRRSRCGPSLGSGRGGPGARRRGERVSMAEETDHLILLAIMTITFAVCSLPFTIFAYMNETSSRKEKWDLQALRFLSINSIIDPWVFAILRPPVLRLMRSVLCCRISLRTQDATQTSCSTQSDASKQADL

For `COC(=O)CCCCCC[C@H]1C(=O)C[C@@H](O)[C@@H]1c1ccc(C(O)C2CCCCC2)cc1` (stereo partly drawn), under setting [1], the EC50 is over 10 µM.
Turning to `CCCC1(C(O)c2cccc([C@H]3[C@H](O)CC(=O)[C@@H]3CCCCCCC(=O)O)c2)CCC1` (stereo partly drawn), the EC50 under setting [1] came out at 5.26 µM.
In the case of `COC(=O)CCCCCC[C@@H]1[C@@H](c2ccc(C(C)(C)C)cc2)[C@H](O)C[C@H]1Cl`, the EC50 under setting [1] was over 10 µM.
As to `CCCC1(C(O)c2ccc([C@@H]3[C@@H](C/C=C\CCCC(=O)O)[C@H](Cl)C[C@H]3O)cc2)CCC1` (stereo partly drawn), under setting [1], the EC50 was 2.27 µM.
Regarding `O=C(O)COCC#CCC1[C@H](Cl)C[C@@H](O)[C@@H]1c1ccc(C(O)C2CCCCC2)cc1` (stereo partly drawn), under setting [1], the EC50 worked out at 1.55 µM.
For the compound `O=C(O)CCC/C=C\C[C@H]1C(=O)C[C@@H](O)[C@@H]1c1ccc(C(O)C2CCCCC2)cc1` (stereo partly drawn), the half-maximal effective concentration (EC50) under setting [1] was over 10 µM.
Turning to `CCCC1(C(O)c2ccc([C@H]3[C@H](O)CC(=O)[C@@H]3CCCCCCC(=O)OC)cc2)CCC1` (stereo partly drawn), the concentration for a half-maximal effect (EC50) under setting [1] was over 10 µM.
Still for that read-out and setting: with `COC(=O)CCC/C=C\C[C@@H]1[C@@H](c2ccc(CO)cc2)[C@H](O)C[C@H]1Cl` the figure was over 10 µM.
As for `COC(=O)CCC/C=C\C[C@H]1C(=O)CC[C@@H]1c1ccc([C@H](O)C2CCCCC2)cc1`, the concentration giving a half-maximal response (EC50) under setting [2] is over 10 µM.
Regarding `O=C(O)COC/C=C\C[C@@H]1[C@@H](c2ccc(C(O)C3CCCCC3)cc2)[C@H](O)C[C@H]1Cl` (stereo partly drawn), the 50% effective concentration (EC50) under setting [1] turned out to be 3.84 µM.
On to `CCCC1(C(O)c2ccc([C@@H]3[C@@H](CCCCCCC(=O)O)[C@H](Cl)C[C@H]3O)cc2)CCC1` (stereo partly drawn), for which the concentration for a half-maximal effect (EC50) under setting [1] stood at 0.546 µM.
Consider `CCCC1(C(O)c2ccc([C@H]3[C@H](O)CC(=O)[C@@H]3C/C=C\CCCC(=O)O)cc2)CCC1` (stereo partly drawn), for which the EC50 under setting [1] is 3.72 µM.
The same measure, in the same setting: with `O=C(O)CCC/C=C\C[C@@H]1[C@@H](c2ccc(C(O)C3CCCCC3)cc2)[C@H](O)C[C@H]1Cl` (stereo partly drawn) [drawing 77] the figure was 0.392 µM.
On the same count and under the same terms, the value for `O=C(O)CCC/C=C\C[C@H]1C(=O)C[C@@H](O)[C@@H]1c1ccc(C2(O)CCC2)cc1` was over 10 µM; that for `CC(C)(CO)c1ccc([C@@H]2[C@@H](C/C=C\CCCC(=O)O)[C@H](Cl)C[C@H]2O)cc1` [drawing 114] was over 10 µM; that for `COC(=O)CCC/C=C\C[C@@H]1[C@@H](c2ccc(C3(O)CCC3)cc2)[C@H](O)C[C@H]1Cl` was over 10 µM.
For the compound `CCCC1(C(O)c2ccc([C@H]3[C@H](O)CC(=O)[C@@H]3CCCCCCC(=O)O)cc2)CCC1` (stereo partly drawn), the half-maximal effective concentration (EC50) under setting [1] stood at 0.635 µM.
As for `O=C(O)CCCCCC[C@H]1C(=O)CC[C@@H]1c1ccc(C2(O)CCC2)cc1`, the EC50 under setting [2] was over 10 µM.
As for `O=C(O)CCCCCC[C@H]1C(=O)C[C@@H](O)[C@@H]1c1ccc(C(O)C2CCCCC2)cc1` (stereo partly drawn), under setting [1], the EC50 stood at 0.45 µM.
Consider `CCCC1(C(O)c2ccc([C@@H]3[C@@H](C/C=C\CCCC(=O)OC)[C@H](Cl)C[C@H]3O)cc2)CCC1` (stereo partly drawn), for which the EC50 under setting [1] is over 10 µM.
On the same count and under the same terms, with `O=C(O)CCCCCC[C@@H]1[C@@H](c2ccc(C(O)C3CCCCC3)cc2)[C@H](O)C[C@H]1Cl` (stereo partly drawn) the figure was 2.81 µM.
For `O=C(O)CCCCCC[C@@H]1[C@@H](c2ccc(CO)cc2)[C@H](O)C[C@H]1Cl`, under setting [1], the EC50 was over 10 µM.
With `COC(=O)CCCCCC[C@H]1C(=O)C[C@@H](O)[C@@H]1c1ccc(C)cc1`, under setting [1], the EC50 was over 10 µM.
Take `O=C(O)COCCCC[C@@H]1[C@@H](c2ccc(C(O)C3CCCCC3)cc2)[C@H](O)C[C@H]1Cl` (stereo partly drawn): under setting [1], the EC50 worked out at 20.8 µM.
